In experiment [1] the target is T1, α-galactosidase (EC 3.2.1.22) (Coffea arabica, UniProt Q42656).
T1 construct: purchased Sigma; host or cells: green coffee beans
Briefly: Initial screening assay for enzyme inhibition, α-galactosidase (green coffee beans). The experiment is classed as biochemical. The note with it: α-galactosidase (green coffee beans), 2% MeOH, read-out: % Enzyme activity relative to control. The procedure:
(§1) Optically pure enantiomers of avarol were synthetically prepared. A survey of potential inhibitory activity by avarol against twelve glycosidases was performed according to general procedures^15 (see experimental section). The enzymes tested and their biological sources are listed in Table 1 along with any pertinent references found for a given enzyme. In order to determine a working range for enzyme and substrate concentrations in which the rate of product formation was linear and steady-state kinetics were applicable, initial rate studies with varying substrate concentrations were performed in the absence of inhibitor. The Michaelis constants (Km 's) and Vmax values for these enzymes were determined from these plots using standard graphical analysis procedures as described in ref. 17 and are summarized in Table 2.
(§2) Enzymatic Assays. Piperazine-N,N'-bix-(2-ethanesulfonic acid)(PIPES) buffer, enzymes, and substrates were purchased from Sigma and used as received. Buffer solutions and enzymes (desiccated) were stored at 4° C. p-Nitrophenyl glycoside substrates were stored desiccated at -20° C. Enzyme inhibition assays and initial rate studies were carried out with the appropriate p-nitrophenyl glycoside substrates following the general procedure of Kajimoto et al., J. Am. Chem. Soc. 113:6187 (1991) with the exception that amyloglucosidase (EC 3.2,1.3, Asp. niger) was assayed following the method of Saul et al., Arch. Biochem. Biophys. 221:593 (1983). Assays were performed in a Perkin-Elmer Lambda Array 3840 Spectrophotometer using the built-in drive method (resolution=0.25, average=8) in a quartz cuvette (1 cm pathlength). Background absorption spectra were acquired using millipore filtered water as medium. Steady-state kinetics were maintained by adjusting the amount of enzyme used in each assay so that less than 10% of the substrate was converted to product for the duration of the reaction. Reactions were monitored at 400 nm (the absorbance of the p-nitrophenol product, ε=3204.5 M^-1 cm^-1) for a given amount of time and the initial rates were calculated and expressed as μmols p-nitrophenol formed per unit enzyme per second. Absportion readings for control reactions were corrected for the small baseline absorbance at time zero. Small discrepancies between time zero absorbance readings in a given inhibition assay and a time zero reading in a control assay were used to correct the overall absorbance change calculated in the inhibition assay. […]
(§3) Typical assay: A 1.5-mL quartz cuvette was charged with 940 μL of PIPES-NaOAc buffer solution (pH 6.56), 20 μL of inhibitor solution, and 20 μL of enzyme solution. […] The reaction was monitored at 400 nm for 1 min and the absorbance change was used to calculate the initial hydrolysis rate. […]

Experiment [2] deals with β-glucosidase (EC 3.2.1.21). In words: Initial screening assay for enzyme inhibition, β-glucosidase. The class given is biochemical, almonds. The note with it: 20 μM inhibitor, 2% MeOH. As for the experimental part: as §1
(§4) Enzymatic Assays. […] Reactions were monitored at 400 nm (the absorbance of the p-nitrophenol product, ε=3204.5 M^-1 cm^-1) for a given amount of time and the initial rates were calculated and expressed as μmols p-nitrophenol formed per unit enzyme per second. Absportion readings for control reactions were corrected for the small baseline absorbance at time zero. Small discrepancies between time zero absorbance readings in a given inhibition assay and a time zero reading in a control assay were used to correct the overall absorbance change calculated in the inhibition assay. […]

The target in experiment [3] is T2, β-xylosidase (EC 3.2.1.37) (Aspergillus niger, UniProt O00089).
T2 construct: purchased Sigma; host or cells: Aspergillus niger
Briefly: Initial screening assay for enzyme inhibition, β-xylosidase. The class given is biochemical. The note with it: 2% MeOH, read-out: % Enzyme activity relative to control. As for the experimental part:
as §1, §2, §3

The target in experiment [4] is T3, α-L-fucosidase (EC 3.2.1.51) (Bos taurus, UniProt Q2KIM0).
T3 construct: purchased Sigma; host or cells: bovine kidney
T3 sequence (Q2KIM0 23-468): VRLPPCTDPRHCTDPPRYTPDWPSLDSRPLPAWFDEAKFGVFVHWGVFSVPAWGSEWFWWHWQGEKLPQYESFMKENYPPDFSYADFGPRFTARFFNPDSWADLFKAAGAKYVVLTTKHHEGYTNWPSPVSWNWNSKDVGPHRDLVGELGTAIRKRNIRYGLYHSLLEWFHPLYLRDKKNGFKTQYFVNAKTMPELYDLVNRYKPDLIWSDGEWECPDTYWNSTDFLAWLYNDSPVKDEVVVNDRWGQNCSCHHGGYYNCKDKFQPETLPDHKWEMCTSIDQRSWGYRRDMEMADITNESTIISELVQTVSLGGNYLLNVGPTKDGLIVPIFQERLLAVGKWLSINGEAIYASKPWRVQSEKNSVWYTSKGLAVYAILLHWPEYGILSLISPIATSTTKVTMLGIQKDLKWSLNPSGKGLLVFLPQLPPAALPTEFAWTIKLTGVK
Briefly: Initial screening assay for enzyme inhibition, α-L-fucosidase. The experiment is classed as biochemical, bovine kidney. The settings on record: α-L-fucosidase, 2% MeOH, read-out: % Enzyme activity relative to control. The procedure: as §1, §2, §3

Experiment [5] concerns β-mannosidase (EC 3.2.1.25). Briefly: Initial screening assay for enzyme inhibition, β-mannosidase. The experiment is classed as biochemical, snail. The note with it: 2% MeOH. The procedure:
as §1, §2, §3

The target in experiment [6] is T4, α-D-mannosidase (jack bean) (Canavalia ensiformis, UniProt C0HJB3).
T4 construct: purchased Sigma; host or cells: jack beans
Briefly: IC50 determination against α-D-mannosidase. The settings on record: hot substrate solutions. The experiment is classed as biochemical. As for the experimental part: Enzymatic assays with a α-D-mannosidase (jack bean) were complicated by the higher Km of the enzyme (2.04 mM) requiring higher substrate concentrations and the relative insolubility of the .rho.-nitrophenyl mannoside substrate in aqueous media. The assay had to be performed using hot solutions of the substrate which were pipetted with some expected difficulty. Nonetheless, IC50 values of >40 μM and ~10 μM were obtained for the (+)- and (-)-enantiomers of avarol respectively.
as §4, with “Assays. Piperazine-N,N'-bix-(2-ethanesulfonic acid)(PIPES) buffer, enzymes, and substrates were purchased from Sigma and used as received. Buffer solutions and enzymes (desiccated) were stored at 4° C. p-Nitrophenyl glycoside substrates were stored desiccated at -20° C.” for “Assays.”

Experiment [7] concerns the target T5, α-glucosidase (EC 3.2.1.20, type IV) (Saccharomyces cerevisiae, UniProt P53341).
T5 construct: purchased Sigma; host or cells: brewer's yeast
Briefly: Initial screening assay for enzyme inhibition, α-glucosidase. The experiment is classed as biochemical, brewer's yeast. The note with it: for remaining activity at 10 µM: α-glucosidase, 10 μM inhibitor, 2% MeOH, read-out: % Enzyme activity relative to control. The procedure: as §1
(§5) Initial screening assays with the enantiomeric avarols indicated significant activity by these compounds against only two of the twelve enzymes studies. […] This can occur when the two species compete for the same site or nearby sites on the enzyme. The equilibria that describe competitive inhibition are shown below. [drawing 3]
Enzymatic Assays. Piperazine-N,N'-bix-(2-ethanesulfonic acid)(PIPES) buffer, enzymes, and substrates were purchased from Sigma and used as received. Buffer solutions and enzymes (desiccated) were stored at 4° C. p-Nitrophenyl glycoside substrates were stored desiccated at -20° C. Enzyme inhibition assays and initial rate studies were carried out with the appropriate p-nitrophenyl glycoside substrates following the general procedure of Kajimoto et al., J. Am. Chem. Soc. 113:6187 (1991) with the exception that amyloglucosidase (EC 3.2,1.3, Asp. niger) was assayed following the method of Saul et al., Arch. Biochem. Biophys. 221:593 (1983). Assays were performed in a Perkin-Elmer Lambda Array 3840 Spectrophotometer using the built-in drive method (resolution=0.25, average=8) in a quartz cuvette (1 cm pathlength). Background absorption spectra were acquired using millipore filtered water as medium. Steady-state kinetics were maintained by adjusting the amount of enzyme used in each assay so that less than 10% of the substrate was converted to product for the duration of the reaction. Reactions were monitored at 400 nm (the absorbance of the p-nitrophenol product, ε=3204.5 M^-1 cm^-1) for a given amount of time and the initial rates were calculated and expressed as μmols p-nitrophenol formed per unit enzyme per second. Absportion readings for control reactions were corrected for the small baseline absorbance at time zero. Small discrepancies between time zero absorbance readings in a given inhibition assay and a time zero reading in a control assay were used to correct the overall absorbance change calculated in the inhibition assay. Inhibitors were dissolved in uv-grade absolute methanol.
Typical assay: A 1.5-mL quartz cuvette was charged with 940 μL of PIPES-NaOAc buffer solution (pH 6.56), 20 μL of inhibitor solution, and 20 μL of enzyme solution. The result was mixed well and then equilibrated at 37° C. for two minutes. 20 μL of the appropriate p-nitrophenyl glycoside solution was then added to initiate the reaction with rapid mixing. The reaction was monitored at 400 nm for 1 min and the absorbance change was used to calculate the initial hydrolysis rate. Lineweaver-Burk plots were constructed by repeating this procedure with varying substrate and inhibitor concentrations.

Experiment [8] addresses T6, α-D-glucosidase (brewer's yeast) (Saccharomyces cerevisiae, UniProt P53341).
T6 construct: purchased Sigma; host or cells: brewer's yeast
In words: IC50 determination against α-D-glucosidase. The experiment is classed as biochemical. The procedure:
as §2, with “Background absorption spectra were acquired using millipore filtered water as medium. Steady-state kinetics were maintained by adjusting the amount of enzyme used in each assay so that less than 10% of the substrate was converted to product for the duration of the reaction.” left out

Experiment [9] has as its target T7, β-galactosidase (EC 3.2.1.23) (Aspergillus niger, UniProt P29853).
T7 construct: purchased Sigma; host or cells: Aspergillus niger
Briefly: Initial screening assay for enzyme inhibition, β-galactosidase (Asp. niger). The experiment is classed as biochemical. The settings on record: 2% MeOH, read-out: % Enzyme activity relative to control. The procedure: as §1, §2, §3

Experiment [10] deals with T8, α-glucosidase (brewer's yeast) (Saccharomyces cerevisiae, UniProt P53341).
T8 construct: purchased Sigma; host or cells: brewer's yeast
Briefly: Lineweaver-Burk analysis of inhibition of α-glucosidase. The class given is biochemical. The settings on record: replot of Lineweaver-Burk slopes, linear extrapolation; pH 6.56, 37° C.
Description: as §5
The equilibria describing this phenomenon are shown below. [drawing 4] The α factor represents the amount by which KS changes when I binds to the enzyme. The overall equilibrium constant for the formation of ESI remains the same regardless of which path was taken in its formation. Since the ES and ESI complexes are equally efficient in producing product, Vmax remains unchanged and Km is increased in the presence of inhibitor.
as §4

pIC50, pKi: −log10 of the molar value.

T5 sequence (P53341 whole entry): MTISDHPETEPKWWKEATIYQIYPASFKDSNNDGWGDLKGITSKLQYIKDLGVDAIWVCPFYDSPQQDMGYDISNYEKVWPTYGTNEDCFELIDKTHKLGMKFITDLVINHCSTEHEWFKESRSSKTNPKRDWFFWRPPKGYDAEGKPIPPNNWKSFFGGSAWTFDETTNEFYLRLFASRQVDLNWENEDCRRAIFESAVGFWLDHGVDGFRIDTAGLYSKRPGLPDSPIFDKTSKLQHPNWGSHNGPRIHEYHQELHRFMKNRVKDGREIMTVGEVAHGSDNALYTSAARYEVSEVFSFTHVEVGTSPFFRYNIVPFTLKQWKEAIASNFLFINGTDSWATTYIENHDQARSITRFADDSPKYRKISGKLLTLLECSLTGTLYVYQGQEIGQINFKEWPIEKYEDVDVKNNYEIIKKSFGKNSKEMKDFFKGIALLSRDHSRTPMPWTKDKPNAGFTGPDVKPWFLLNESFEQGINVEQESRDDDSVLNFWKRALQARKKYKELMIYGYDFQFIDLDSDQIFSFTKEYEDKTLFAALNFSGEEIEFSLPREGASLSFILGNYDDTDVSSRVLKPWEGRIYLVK
T4 sequence (C0HJB3 1-562 limits assumed): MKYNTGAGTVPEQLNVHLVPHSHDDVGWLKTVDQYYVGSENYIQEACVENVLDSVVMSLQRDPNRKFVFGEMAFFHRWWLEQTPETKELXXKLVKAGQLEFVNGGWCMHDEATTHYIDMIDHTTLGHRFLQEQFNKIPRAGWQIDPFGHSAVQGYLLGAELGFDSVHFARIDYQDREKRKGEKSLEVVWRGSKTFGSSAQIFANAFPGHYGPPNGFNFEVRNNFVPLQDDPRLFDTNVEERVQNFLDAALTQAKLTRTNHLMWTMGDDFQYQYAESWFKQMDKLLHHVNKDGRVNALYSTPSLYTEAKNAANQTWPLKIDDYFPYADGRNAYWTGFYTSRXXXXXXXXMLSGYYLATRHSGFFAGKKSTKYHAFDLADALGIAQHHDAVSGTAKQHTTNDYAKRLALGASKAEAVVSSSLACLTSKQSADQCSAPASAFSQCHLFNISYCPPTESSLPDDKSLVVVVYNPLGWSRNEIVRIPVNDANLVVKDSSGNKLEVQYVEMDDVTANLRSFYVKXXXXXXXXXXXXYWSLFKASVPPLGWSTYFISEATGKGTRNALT
T4 sequence (C0HJB3 563-981 limits assumed): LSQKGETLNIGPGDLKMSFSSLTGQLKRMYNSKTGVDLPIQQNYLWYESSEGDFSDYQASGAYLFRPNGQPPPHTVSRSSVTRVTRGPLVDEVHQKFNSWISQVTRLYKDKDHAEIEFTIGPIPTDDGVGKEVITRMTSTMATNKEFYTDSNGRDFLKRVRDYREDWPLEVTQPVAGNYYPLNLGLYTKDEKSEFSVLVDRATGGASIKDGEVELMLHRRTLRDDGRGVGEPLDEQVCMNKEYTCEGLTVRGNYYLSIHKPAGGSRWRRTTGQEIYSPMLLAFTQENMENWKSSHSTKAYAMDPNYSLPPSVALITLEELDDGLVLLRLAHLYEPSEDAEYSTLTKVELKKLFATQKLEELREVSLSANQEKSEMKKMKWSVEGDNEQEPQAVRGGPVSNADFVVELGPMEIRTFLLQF
T1 sequence (Q42656 16-378): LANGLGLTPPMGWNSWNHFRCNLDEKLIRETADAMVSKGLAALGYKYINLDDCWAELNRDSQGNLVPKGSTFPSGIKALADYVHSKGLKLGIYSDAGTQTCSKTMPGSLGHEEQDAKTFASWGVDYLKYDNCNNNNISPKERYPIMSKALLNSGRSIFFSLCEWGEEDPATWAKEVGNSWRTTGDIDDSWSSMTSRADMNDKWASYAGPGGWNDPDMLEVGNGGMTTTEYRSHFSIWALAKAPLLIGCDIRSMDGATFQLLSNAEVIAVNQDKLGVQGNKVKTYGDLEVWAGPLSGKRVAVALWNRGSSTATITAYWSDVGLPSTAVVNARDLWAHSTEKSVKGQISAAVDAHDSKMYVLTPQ
T2 sequence (O00089 27-804): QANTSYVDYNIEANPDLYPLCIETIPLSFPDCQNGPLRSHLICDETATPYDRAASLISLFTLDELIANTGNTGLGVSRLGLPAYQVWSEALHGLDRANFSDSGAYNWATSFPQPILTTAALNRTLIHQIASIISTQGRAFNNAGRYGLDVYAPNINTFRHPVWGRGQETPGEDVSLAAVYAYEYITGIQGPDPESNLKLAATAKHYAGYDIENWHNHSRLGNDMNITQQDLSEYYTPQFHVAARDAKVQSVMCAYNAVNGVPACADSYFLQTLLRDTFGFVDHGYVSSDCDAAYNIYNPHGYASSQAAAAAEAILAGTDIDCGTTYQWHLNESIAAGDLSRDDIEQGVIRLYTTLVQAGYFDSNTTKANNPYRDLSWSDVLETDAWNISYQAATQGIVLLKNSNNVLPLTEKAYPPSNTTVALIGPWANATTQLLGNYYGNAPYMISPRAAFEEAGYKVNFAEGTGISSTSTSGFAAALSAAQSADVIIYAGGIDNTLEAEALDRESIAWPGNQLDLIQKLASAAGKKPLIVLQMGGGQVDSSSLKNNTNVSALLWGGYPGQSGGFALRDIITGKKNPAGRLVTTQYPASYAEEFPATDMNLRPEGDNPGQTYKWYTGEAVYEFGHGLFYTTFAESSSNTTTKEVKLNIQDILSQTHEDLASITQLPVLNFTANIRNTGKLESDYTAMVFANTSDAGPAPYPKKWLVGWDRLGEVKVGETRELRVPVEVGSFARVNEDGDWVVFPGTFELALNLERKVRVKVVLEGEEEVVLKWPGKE
T7 sequence (P29853 20-1006): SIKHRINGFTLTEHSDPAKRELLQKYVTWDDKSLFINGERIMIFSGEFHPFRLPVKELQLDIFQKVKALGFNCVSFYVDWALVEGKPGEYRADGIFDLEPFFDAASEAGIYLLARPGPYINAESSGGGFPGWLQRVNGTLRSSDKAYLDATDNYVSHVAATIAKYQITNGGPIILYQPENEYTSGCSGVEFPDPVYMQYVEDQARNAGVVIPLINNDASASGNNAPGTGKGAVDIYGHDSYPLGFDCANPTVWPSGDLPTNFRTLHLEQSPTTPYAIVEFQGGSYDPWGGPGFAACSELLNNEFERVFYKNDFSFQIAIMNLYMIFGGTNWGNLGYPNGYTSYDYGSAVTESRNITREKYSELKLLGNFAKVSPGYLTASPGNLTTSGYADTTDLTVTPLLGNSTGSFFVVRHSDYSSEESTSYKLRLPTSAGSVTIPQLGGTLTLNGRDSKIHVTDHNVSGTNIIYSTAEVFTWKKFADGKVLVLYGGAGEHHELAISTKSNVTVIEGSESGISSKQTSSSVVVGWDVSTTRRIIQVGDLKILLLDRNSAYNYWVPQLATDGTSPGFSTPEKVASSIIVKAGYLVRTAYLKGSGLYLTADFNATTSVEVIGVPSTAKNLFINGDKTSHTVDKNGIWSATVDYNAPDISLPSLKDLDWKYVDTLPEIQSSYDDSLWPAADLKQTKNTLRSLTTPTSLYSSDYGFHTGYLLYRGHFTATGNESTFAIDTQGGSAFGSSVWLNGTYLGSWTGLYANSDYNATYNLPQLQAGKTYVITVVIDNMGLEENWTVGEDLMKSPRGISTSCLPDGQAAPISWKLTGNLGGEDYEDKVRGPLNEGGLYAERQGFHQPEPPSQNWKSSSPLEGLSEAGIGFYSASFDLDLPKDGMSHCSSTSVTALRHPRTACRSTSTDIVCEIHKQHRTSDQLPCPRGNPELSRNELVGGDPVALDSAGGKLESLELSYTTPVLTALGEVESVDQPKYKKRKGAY
T6 sequence (P53341 whole entry): as the sequence (P53341 whole entry) above
T8 sequence (P53341 whole entry): as above

By pIC50 is commonly meant −log10 of the IC50, conventionally taken in molar units. The low end stands for a large IC50, the high end for a small IC50. A word on the pKi: it is the negative decadic logarithm of the Ki, by convention in mol/L. In the case of `CC1=CCC[C@@H]2[C@@](C)(Cc3cc(O)ccc3O)[C@H](C)CC[C@@]12C` [(-)-avarol], the remaining activity at 20 µM in experiment [1] (20 μM inhibitor) was determined as 83%; in experiment [3] (20 μM inhibitor), 91%; in [4] (20 μM inhibitor), 108%; in [9] (20 μM inhibitor) it was 111%. Further, the “% Enzyme activity relative to control” value in experiment [2] worked out at 96%; in experiment [5] (20 μM inhibitor), 101%. The results for the pIC50 in experiment [6] and in [8] were around 5.00 and 5.12, respectively. Besides, the “activity versus naturally-occurring enantiomer, α-glucosidase (in words)” value in experiment [7] (versus (+)-avarol) was “significantly more active than the naturally-occurring enantiomer”. The remaining activity at 10 µM in experiment [7] worked out at 43%. The pKi in experiment [10] was 5.02.

For the compound `CC1=CCC[C@H]2[C@](C)(Cc3cc(O)ccc3O)[C@@H](C)CC[C@]12C` [(+)-avarol, (+)-Avarol], the remaining activity at 40 µM in experiment [1] (40 μM inhibitor) worked out at 82%; in experiment [3] (40 μM inhibitor) it was 100%; in experiment [4] (40 μM inhibitor) it was 101%; in experiment [9] (40 μM inhibitor), 104%. For the same compound, the entries for the “% Enzyme activity relative to control” value in experiment [2] and in experiment [5] (40 μM inhibitor) were 102% and 106%, respectively. Further, the negative-log IC50 (pIC50) is below 4.40 in experiment [6] and below 4.70 in experiment [8]. Also, the remaining activity at 10 µM in [7] is 63%. For the same compound, the negative-log Ki (pKi) in experiment [10] is 4.60.

The values above are taken from patent publication US6075057A, “Inhibition of carbohydrates metabolism by quinone compounds” (priority 1997, dated 2000).
